Consider two molecules from US10894036B2, “Use of marizomib for the treatment of central nervous system (CNS) cancers” (Celgene International II Sàrl, priority 2016, dated 2021).

Series [1] has as its system human glioblastoma (GBM) cell lines. The series can be described thus: Migration and matrix invasion of GBM cell lines. In kind it is cell-based. The conditions noted are these: either of two GBM lines. The source says:
In vitro studies of multiple glioma cell lines were highly sensitive to MRZ. […] Treatment with MRZ decreased matrix invasion by either of two GBM lines by approximately 90%, a highly significant effect.

The nature of series [2]: Compassionate use of marizomib in CNS-myeloma patients: safety. In kind it is in vivo, human. Here is the method:
This example sets forth seven case studies in which CNS-MM (i.e., multiple myeloma with CNS involvement) was treated using marizomib alone or in combination with other agents.
As set forth herein, 7 patients were treated under single patient compassionate use protocols with MRZ for CNS-myeloma. Marizomib was well-tolerated. […] One patient has been on the study for 13 months with complete resolution of both […].

In series [3] the test system is chymotrypsin-like (CT-L) proteasome activity. The series is described as follows: Proteasome inhibition in packed whole blood: CT-L. In kind it is in vivo, human. The source says: The drugs were infused on 28-Day Cycles.
Change in proteasome activities in packed whole blood (PWB) lysates and peripheral blood mononuclear cell (PBMC) lysates, comparing pre-drug and post drug levels on Days 1, 8, and 15 of Cycle 1; Days 1 and 15 of each Cycle thereafter; and at the End-of Treatment Visit.
The laboratory correlates include assessment of the percentage inhibition of proteasome function (evaluated by measurement of CT-L, T-L and C-L activity in blood isolates such as whole blood and PBMC lysates.
PD analysis will include change in proteasome activities (whole blood lysates and PBMC lysates) by comparing pre-drug and post drug levels on Days 1, 8, and 15 (i.e., for each dose) of Cycle 1 and Days 1 and 15 (i.e., for the first and last doses) of each cycle thereafter.

Series [4] deals with 20S Proteasome. The series is described as follows: 20S proteasome activity (% inhibition) in rodent brain. In kind it is in vivo, mouse.
Series [5] deals with D54MG cells. The series is described as follows: Intracranial GBM xenograft survival. The format is in vivo. The conditions noted are these: athymic BALB/c nu/nu mice, MRZ IV twice weekly. Here is the method: 1×10^5 D54MG cells implanted into right frontal lobes of athymic BALB/c nu/nu mice. MRZ administered IV twice weekly.
The conditions of series [6]: 10 mg/kg dose, Gordon et al., 2001; cited from earlier work.
The mark [7] stands for this setting: MRZ 0.7 mg/m^2, C1D8 (17 May 2016).
Where [8] appears, read: MRZ 0.8 mg/m^2, C1D8 (17 May 2016).
Setting [9] is: MRZ 0.8 mg/m^2, C1D8 (Table 43).
[10] abbreviates: tumor-bearing mouse, IV, individual mice 1 and 2.
Where [11] appears, read: tumor-bearing mouse, IV, individual mice 1 and 2, NE = No Effect, listed as MRZ.
Where [12] appears, read: tumor-bearing mouse, IV, individual mice 1 and 2, listed as MRZ.

Where “and” joins values, the source holds several entries; their conditions need not be identical. Equal entries are not always repeated. Entries after “also recorded” stand apart in the source; their conditions may differ. Where two headings read alike, the source gives them in different places.

Turning to `C[C@@]12OC(=O)[C@]1([C@@H](O)[C@@H]1C=CCCC1)NC(=O)[C@@H]2CCCl` [marizomib], the “decrease of matrix invasion” value in series [1] is given as “approximately 90%”. The CNS adverse events entry is recorded as “no CNS adverse events” in series [2] (7 CNS-MM patients) and “No CNS-adverse events” in series [2] (7 CNS-MM patients, listed as Marizomib). Also, in series [2] (7 CNS-MM patients), the tolerability entry is “well-tolerated”. Besides, the Safety entry is recorded as “No adverse events were reported” in series [2] (Case 1); “MRZ was well tolerated” in series [2] (Case 1, listed as MRZ); “No adverse events or serious adverse events were observed” in series [2] (Case 2); “No concerning AEs” in series [2] (Case 2, listed as MRZ); “grade 1 adverse event” in series [2] (Case 3); “Grade 1 shortness of” in series [2] (Case 3, listed as MRZ). Moreover, the Safety result is “well-tolerated with no adverse events reported” in series [2] (Case 4); “Tolerated treatment” in series [2] (Case 4, listed as MRZ); “serious adverse event” in series [2] (Case 5); “AE due to PD,” in series [2] (Case 5, listed as MRZ); “grade 2 adverse event” in series [2] (Case 6); “Overall, no safety” in series [2] (Case 6, listed as MRZ). Moreover, in series [2] (Case 7, listed as MRZ), the Safety entry is listed as “No adverse events or safety concerns were noted; also recorded: No AEs or safety”. Moreover, the CL entry (IV infusion) is recorded as “high”. In addition, the T½ entry (IV infusion) was “short”. For the same molecule, the Vd entry runs as follows: (IV infusion) “large”; under setting [9], 55.0 ± 19.7 (3) L. Besides, the CLobs under setting [7] was 162 (1) mL/min/m^2; the CLobs (MRZ 0.7 mg/m^2, C1D8 (Table 43)) was 272 ± 166 (3) L/hr; the CLobs under setting [8] is recorded as 3822 ± 1798 (2) mL/min/m^2; the CLobs under setting [9] is reported as 304 ± 85.0 (3) L/hr; the CLobs (marizomib 0.7 mg/m^2 IV, C1D8, blood) was 272 ± 166 (3) L/hr; the CLobs (marizomib 0.8 mg/m^2 IV, C1D8, blood) is reported as 304 ± 85.0 (3) L/hr. Moreover, the Cmax under setting [7] was 65 ± 31 (3) ng/mL. Also, the Vss obs reads like this: under setting [7], 7377 (1) mL/m^2; under setting [8], 12379 ± 8698 (2) mL/m^2; (MRZ […]^2, C1D8 (17 May 2016)) 12971 ± 7600 (3) mL/m^2. For the same molecule, the “MRZ pharmacokinetic parameters: effect of co-administration” value (with BEV) is “not affected by co-administration”. Besides, the “% CT-L inhibition” value is 100 ± 0 (3) % in series [3] (PWB post-MRZ infusion (peak effect), 0.7 mg/m^2 (17 May 2016)); 100 ± 0 (3) % in series [3] (PWB post-Marizomib infusion (peak effect), 0.7 mg/m^2); 100 ± 0 (3) % in series [3] (PWB post-Marizomib infusion (peak effect), 0.8 mg/m^2). In series [3] (packed whole blood, up to two weeks after marizomib dosing), the “sustained inhibition of the CT-L domain, pre-infusion” value is listed as 60-80%. Also, the “proteasome activity in brain” value in series [4] (mouse) was “inhibits proteasome activity”. In addition, the “CT-L activity in brain” value in series [4] (tumor-bearing mouse) is listed as “inhibits CT-L activity in brain”. Further, the “20S Proteasome Activity (% Inhibition), Blood, Peak (2 hr)” value in series [4] (setting [10]) was found to be 99%. In addition, the “20S Proteasome Activity (% Inhibition), Blood, Trough” value in series [4] (setting [10]) worked out at 87%. In series [4] (setting [11]), the “20S Proteasome Activity (% Inhibition), Brain, Peak (2 hr)” value is 94% and 98%. For the same molecule, the “20S Proteasome Activity (% Inhibition), Brain, Trough” value in series [4] (setting [11]) is 52% and 41%. In addition, in series [4] (setting [12]), the “20S Proteasome Activity (% Inhibition), Tumor, Peak (2 hr)” value was 56% and 77%. The “20S Proteasome Activity (% Inhibition), Tumor, Trough” value in series [4] (setting [12]) is 15% and 0%. In addition, the “activity in intracranial GBM xenograft” value in series [5] is “Active”.

As to bevacizumab [reference compound], the “Cmax of bevacizumab at Day 0” value in series [6] was 284 µg/mL.
